The subject of one assay is NF-κβ. Description: In vitro induction of NF-κβ in THP1 dual cells (SEAP reporter). It counts as cell-based. How it is done:
Example 2. In Vitro Induction of IRF and NF-κβ in THP1 Cells
THP1 dual cells grown in complete media were treated with various concentrations of a compound of the present disclosure or DMSO control. Dual cells carry both secreted embryonic alkaline phosphatase (SEAP) reporter gene under the control of an IFN-β minimal promoter fused to five copies of the NF-kB consensus transcriptional response element to measure NF-kB activity and Lucia reporter gene under the control of an ISG54 minimal promoter to measure IRF activity. After 20 h incubation, IRF activity was assessed using QUANTI-luc to measure levels of Lucia and NF-kB activity was determined by measure SEAP levels at 620-655 nm. % induction was calculated from fold change in luminescence/absorbance compared to DMSO treated sample. […] EC50 values were generated by curve fit in Xlfit.
(§1) Cells grown in complete media were treated with various concentrations of a compound of the disclosure or DMSO control. Dual cells carry both secreted embryonic alkaline phosphatase (SEAP) reporter gene under the control of an IFN-β minimal promoter fused to five copies of the NF-kB consensus transcriptional response element to measure NF-kB activity and Lucia reporter gene under the control of an ISG54 minimal promoter to measure IRF activity. After 20 h incubation, IRF activity was assessed using QUANTI-luc to measure levels of Lucia and NF-kB activity was determined by measure SEAP levels at 620-655 nm. % induction was calculated from fold change in luminescence/absorbance compared to DMSO treated sample. EC50 values are generated by curve fit in Xlfit.

Assay [1] deals with peripheral blood mononuclear cells (PBMCs). Description: IFNb and TNFa secretion by freshly isolated PBMCs (ELISA). It counts as cell-based, human. The settings on record: 20 hours. How it is done: FIG. 25 depicts freshly isolated peripheral blood mononuclear cells (PBMCs) treated with a range of concentrations of compound 3 or DMSO control for 20 hours. Supernatants were collected to measure IFNb and TNFa secretion by Verikine-Human IFN beta Serum ELISA kit and Human TNF Alpha ELISA kit respectively. The amount of cytokine releases into supernatant was calculated by a standard curve. Compound 3 induces IFNβ and TNFα secretion in PBMCs after treatment.
FIG. 29 depicts freshly isolated PBMCs that were treated with a range of concentrations of compound 4 or DMSO control for 20 hours. Supernatants were collected to measure IFNb and TNFa secretion by Verikine-Human IFN beta Serum ELISA kit and Human TNF Alpha ELISA kit respectively. The amount of cytokine releases into supernatant was calculated by a standard curve. Compound 4 induces IFNβ and TNFα secretion in PBMCs after treatment.

The test system of a further assay is ISGs/type I IFN response. Description: ISGs/type I IFN response in normal Balb/C mice after intravenous dosing. It counts as in vivo, mouse. The settings on record: intravenously 9 mg/kg.
Another assay addresses T1, STING CTD (Homo sapiens, UniProt Q86WV6, H232R).
T1 construct: Thermal shift assay was conducted with 0.1 mg/mL of STING CTD
Description: Thermal shift assay with STING CTD. The settings on record: 0.1 mg/mL STING CTD, compound 2 mM to 0.05 uM. It counts as binding. The method, then:
Fluorescence as a function of temperature was recorded using a Real Time PCR machine (Thermo Fisher). The temperature gradient was performed in the range of 25-80° C. with a ramp of 0.2° C. over the course of 60 minutes. Data was analyzed with the Thermal Shift Software (Thermo Fisher) and DSF analysis. The Derivative model was used to fit the fluorescence data to obtain the midpoint temperature for the thermal protein unfolding transition (Tm) using the curve-fitting software Prism.

In assay [2] the target is T2, human wtSTING-CTD (with SUMO tag) (Homo sapiens, UniProt Q86WV6, H232R).
T2 construct: human wtSTING-CTD (with SUMO tag)
Nature of the assay: Isothermal calorimetry against human wtSTING-CTD. Conditions: 25° C., 1.5 mM compound titrated against 132.5 μM protein. It counts as binding. The method, then: Isothermal Calorimetry was carried out on a MicroCal Itc200 at 25° C.
In general terms: Isothermal titration calorimetry measures the heat released or taken up as one component is titrated into another.

For assay [3], the system named is RAW-Lucia-ISG-STING KO cells. Nature of the assay: IRF-type I IFN secreted luciferase in RAW-Lucia-ISG-STING KO cells. It counts as cell-based. Conditions: compound alone, 19 hours. The method, then: FIG. 4 depicts RAW-Lucia-ISG-WT and RAW-Lucia-ISG-STING KO cells were stimulated with compound 2 or compound 4, alone for 19 hours. Activity of secreted luciferase (IRF-type I IFN activity) in cell culture supernatant was measured using Invivogen's Quanti-luc. Data is shown as fold induction over DMSO treated cells (mean±standard deviation of triplicate wells per stimulant). EC50 values were calculated using XLfit.

The next assay concerns THP1-STING KO cells. Nature of the assay: IRF activity in THP1-STING KO cells. It counts as cell-based. The settings on record: compound alone, 20 hours.
The target in a further assay is R232H variant of hSTING (Homo sapiens, UniProt Q86WV6). Description: IRF/NF-kB reporter cells, STING R232H variant. It counts as cell-based. The settings on record: 20 hours. How it is done: (§2) FIG. 27 depicts cells stably expressing both or either one of the reporters to measure IRF and NF-kB activity were treated with a range of concentrations of compound 4 or DMSO control for 20 hours. IRF activity was assessed using QUANTI-luc to measure levels of Lucia and NF-kB activity was determined by measure SEAP levels at 620-655 nm. % induction was calculated from fold change in luminescence/absorbance compared to DMSO treated sample. EC50 values are generated by curve fit in Xlfit.
as §1

The next assay has as its system MYD88 knock out cells. Description: IRF/NF-kB reporter activity in MYD88 knock out cells. It counts as cell-based. The settings on record: 20 hours. The method, then:
as §2, §1

The test system of the next assay is IRF. Description: IRF signaling reporter (Lucia), compound 4 and diastereomers. It counts as cell-based. Conditions: 20 hours. The method, then: Cells were treated with various concentrations of […] and two of its diastereomers (4-A and 4-B), or DMSO control for 20 hours. Cells stably expressed one or both of the reporters used to measure IRF activity. IRF activity was assessed using QUANTI-luc to measure levels of Lucia. % induction was calculated from fold change in luminescence/absorbance compared to DMSO treated sample.
Cells were treated with various concentrations of compound 4 and two of its diastereomers (4-A and 4-B), or DMSO control for 20 hours. Cells stably expressed one or both of the reporters used to measure IRF activity. IRF activity was assessed using QUANTI-luc to measure levels of Lucia. % induction was calculated from fold change in luminescence/absorbance compared to DMSO treated sample.

Another assay relates to NF-kB. Description: NF-kB signaling reporter (SEAP), compound 4 and diastereomers. Conditions: FIG. 34B, 20 hours. It counts as cell-based. The method, then:
Cells were treated with various concentrations of compound 4 and two of its diastereomers (4-A and 4-B), or DMSO control for 20 hours. Cells stably expressed one or both of the reporters used to measure NF-kB activity. NF-kB activity was determined by measure SEAP levels at 620-655 nm. % induction was calculated from fold change in luminescence/absorbance compared to DMSO treated sample.

A word on the pEC50: it is the EC50 on a negative log10 scale, so that one unit is a factor of ten. Read a low pEC50 as a large EC50.

pEC50: −log10 of the molar value.

R232H variant of hSTING, sequence (Q86WV6 whole entry, stated change not applied): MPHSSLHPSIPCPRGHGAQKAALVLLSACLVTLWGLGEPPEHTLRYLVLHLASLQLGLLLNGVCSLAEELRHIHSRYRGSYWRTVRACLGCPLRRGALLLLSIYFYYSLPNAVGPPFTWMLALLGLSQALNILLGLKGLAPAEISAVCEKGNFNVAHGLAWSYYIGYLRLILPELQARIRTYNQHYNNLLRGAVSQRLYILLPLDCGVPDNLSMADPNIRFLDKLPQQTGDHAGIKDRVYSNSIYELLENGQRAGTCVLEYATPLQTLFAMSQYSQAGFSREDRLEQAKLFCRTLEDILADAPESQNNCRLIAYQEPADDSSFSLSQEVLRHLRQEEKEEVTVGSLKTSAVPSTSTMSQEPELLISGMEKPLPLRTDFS
T2 sequence (Q86WV6 135-379 H232R): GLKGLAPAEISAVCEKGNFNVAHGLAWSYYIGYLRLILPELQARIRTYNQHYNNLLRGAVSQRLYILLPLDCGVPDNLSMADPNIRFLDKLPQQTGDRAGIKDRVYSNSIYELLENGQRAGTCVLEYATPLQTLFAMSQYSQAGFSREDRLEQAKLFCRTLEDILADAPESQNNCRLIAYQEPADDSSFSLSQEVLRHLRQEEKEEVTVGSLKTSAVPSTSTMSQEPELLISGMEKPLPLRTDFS
T1 sequence (Q86WV6 135-379 H232R): as above

`N.N.Nc1ncnc2c1ncn2[C@@H]1O[C@@H]2COP(=O)(S)O[C@@H]3[C@H](F)[C@@H](COP(=O)(O)O[C@H]2[C@H]1F)O[C@H]3n1ccc(=O)[nH]c1=O` (stereo partly shown) [Compound 3] had a negative-log EC50 (pEC50) in the assay with NF-κβ (Homo sapiens, THP-1, 20 h incubation) of under 5.70. Besides, in [1], the IFNβ secretion result is reported as “induces” and the TNFα secretion result is “induces”. Further, the “upregulation of ISGs/type I IFN response” value in the assay on ISGs/type I IFN response is on record as “strongly induced upregulation”. The “binding to STING (thermal shift)” value at STING CTD was “bind to STING with high affinity”. Besides, the “binding to STING (isothermal calorimetry)” value in [2] is “bind to STING with high affinity”.

As to `CCCCCCCCCCOc1ccc(C(=O)Oc2ccc(CSP3(=O)OC[C@H]4O[C@@H](n5cnc6c(N)ncnc65)[C@H](F)[C@@H]4OP(=O)(O)OC[C@H]4O[C@@H](n5ccc(=O)[nH]c5=O)[C@H](O3)[C@@H]4F)cc2)cc1` (stereo partly shown) [Compound 4], the negative logarithm of the EC50 (pEC50) in the assay on NF-κβ (20 h incubation) is over 7.30. In addition, the “IRF activity in STING KO cells” value in assay [3] is reported as “Neither compound induced IRF activity”. In the assay with THP1-STING KO cells, the “IRF activity in THP1-STING KO cells” value was “did not induced IRF activity”. Besides, the “activity against R232H variant of hSTING” value at R232H variant of hSTING is reported as “possess activity”. Moreover, the “activity in MYD88 knock out cells” value with MYD88 knock out cells is reported as “possess activity”. Moreover, the IFNβ secretion result in [1] was “induces”. Besides, the TNFα secretion result in assay [1] is given as “induces”. Also, the IRF signaling induction result in the assay with IRF (FIG. 34A) and in the assay on IRF (FIG. 34C) was “efficacious in inducing IRF signaling” each time. For the same molecule, the NF-kB signaling induction result in the assay with NF-kB is on record as “efficacious in inducing NF-kB signaling”.

Values taken from US11638716B2, “Compounds, compositions, and methods for the treatment of disease” (F-star Therapeutics, Inc., priority 2017, dated 2023).
